Results reported in US4966895A, “Cyclic monophosphates of purine and pyrimidine acyclonucleosides as anti-retroviral agents” (Merck & Co. Inc., priority 1989, dated 1990).
In brackets after ≈: the same amount, converted by molar mass. Counter-ions that a name gives are not always drawn. Like-named read-outs stand apart in the source and are kept apart here.

Experiments:
visna virus = assay: Inhibition of visna virus-induced CPE in sheep choroid plexus (SCP) cells; format: cell-based, strain 1514; details: Visna-maedi virus, 144 h
From the text: Activity of 9-[(2-hydroxy-1,3,2-dioxophosphorian-5-yl)oxymethyl]guanine P-oxide, sodium salt (2'-NOR-cGMP) against visna virus in sheep choroid plexus cells.
Visna virus, strain 1514, is a lentivirus of the retrovirus family. It was chosen because of its genetic and biologic similarity to the human immunodeficiency viruses (HIV). Since visna virus and the human immunodeficiency virus are closely related retroviruses, activity against the visna virus by a compound is felt to predict activity against the human immunodeficiency virus by the same compound. (See Visna Virus as an In Vitro Model for Human Immunodeficiency Virus and Inhibition by Ribavirin, Phosphonoformate, and 2',3'-Dideoxy-nucleosides, Frank K. B.; McKernan P.A.; Smith R.A.; Smee D.F.; Antimicrobiol Agents and Chemotherapy, Sept. 1987; Vol. 31, No. 9 Pg 1369-1374.) The virus has been cultivated and plaque purified in SCP cells fed with MEM, HEPES, gentamicin and 2% lamb serum.
(§1) Visna virus is cultivated in low passage cells derived from the choroid plexus (SCP) of a newborn lamb. The choroid plexus is dissected from the newborn lamb, minced and diluted in minimum essential medium (MEM), containing 20% fetal bovine serum (FBS), 1 mM N 2-hydroxyethylpiperazine-N'-2-ethane sulfonic acid (HEPES), 50 μg/ml gentamicin at PH 7.4. After initial cultivation, cells are dispersed by addition of trypsin (0.25%) plus EDTA, split 1:2 and added to MEM+10% FBS, HEPES, gentamicin and reincubated. At approximately passage 4 there are adequate numbers of cells for freezing and storage in liquid nitrogen.
(§2) For antiviral assays, 0.2 ml SCP cells (0.7×10^5 cells/ml) are inoculated into wells of 96 well microtiter plates and incubated for 18-24 hours.
(§3) The medium is decanted from the cells, and drug and virus(~320-50% infectious doses) are added within 15 minutes. Each concentration of drug (serial two-fold or half-log dilutions) are added in 0.1 ml volumes to each of 6 wells. Visna virus is added (0.1 ml) to 4 wells for observation of virus inhibitory activity.
(§4) Virus free test medium is added to two wells (0.1 mL) for observation of drug cytotoxicity. Experimental controls include: cell control (cells with 0.2 mL medium) and virus controls (cells with 0.1 mL virus and 0.1 mL medium). The degree of CPE inhibition and drug cytotoxicity in comparison with virus and cell controls is observed microscopically after 6 days of incubation at 37° C. Fresh medium and drug dilutions are placed on the cells after 3 days of incubation. Virus CPE and drug cytotoxicity are scored on a 0-4 basis with 4 representing total cell destruction. The lowest concentration of drug producing ≥50% inhibition of virus-induced CPE is considered the minimum inhibitory concentration (MIC). The lowest concentration of drug producing a score of […] or visable alteration in cell morphology will be considered the minimum cytotoxic concentration (MCC). Using the observed percent CPE, the MIC will be calculated by linear regression analysis.

in vitro = format: cell-based; details: sheep, choroid plexus cells
Procedure: as §1, §2, §3, §4

[1] = mean of individual values, ≥50% inhibition of virus-induced CPE, 6 days, 37° C, sheep choroid plexus cells, read-out: MIC (minimum inhibitory concentration), Mean
[2] = MCC (minimum cytotoxic concentration), Range
[3] = read-out: MIC (minimum inhibitory concentration), Mean

| SMILES | MIC (visna virus; [1]) [µg/mL] | MCC at 144 h (in vitro; [2]) [µg/mL] | MIC (visna virus; [3]) [µg/mL] | MCC at 144 h (in vitro; range of individual values, 6 days, 37° C, virus free, read-out: MCC (minimum cytotoxic concentration), Range) [µg/mL] | MCC at 144 h (in vitro; lowest concentration producing a score of ≤1 or visible alteration in cell morphology, 6 days, 37° C, virus free, read-out: MCC (minimum cytotoxic concentration), Individual Values) [µg/mL] | MIC (visna virus; read-out: MIC (minimum inhibitory concentration), Individual Values) [µg/mL] | MCC at 144 h (in vitro; MCC (minimum cytotoxic concentration), Individual Values) [µg/mL] |
| --- | --- | --- | --- | --- | --- | --- | --- |
| NC(=O)c1ncn([C@@H]2O[C@H](CO)[C@@H](O)[C@H]2O)n1 [Virazole] | 175 (≈ 718 µM) | 100 to 320 | – | – | – | – | – |
| Nc1nc2c(ncn2COC2COP(=O)(O)OC2)c(=O)[nH]1 (centres unmarked) [2'-nor-cGMP, 9-[(2-hydroxy-1,3,2-dioxophosphorian-5-yl)oxymethyl]guanine P-oxide, sodium salt] | 24 | 32 to 100 | – | – | – | – | – |
| O=C(O)P(=O)(O)O [Phosphonoformate] | – | – | 57.4 (≈ 456 µM) | 100 | 100 | – | – |
| Cc1cn([C@H]2C[C@H](N=[N+]=[N-])[C@@H](CO)O2)c(=O)[nH]c1=O [Azidothymidine] | – | 40 | 10 (≈ 37.4 µM) | – | – | 10 (≈ 37.4 µM) | 40 |
